Measurements: patent publication US10150728B2, “Alkylene derivatives” (Shionogi & Co., Ltd., priority 2013, dated 2018)

molecular target: recombinant human ACC2 (Homo sapiens (Human), UniProt O00763); experiment: Measurement of inhibitory activity on human ACC2 (MALDI-TOF MS, acetyl CoA to malonyl CoA conversion); assay type: biochemical; conditions: Table 154
From the text: Preparation 1: Preparation of Recombinant Human ACC2
After a cDNA encoding human ACC2 (27 amino acid residue to 2458 amino acid residues from the N-terminus) was cloned from human kidney cDNA library (Clontech), human ACC2 gene containing His-tag sequence at 5′ terminus was inserted into pFastBac1 (Invitrogen). Recombinant baculovirus was generated using Bac-to-Bac baculovirus expression system (Invitrogen) according to the manufacturer's protocol. To express human ACC2, Sf-9 cells were infected with recombinant baculovirus. After infected cells were disrupted, the filtrated lysate was subjected to Ni-affinity chromatography and anion-exchange chromatography. The fractions containing human ACC2 protein were pooled as recombinant human ACC2 solution.
The Measurement of Inhibitory Activity on Human ACC1 and the ACC2
Recombinant human ACC1 and recombinant human ACC2, which were prepared by the method mentioned above, were preincubated with assay buffer solution (50 mM HEPES-KOH (pH 7.4), 10 mM magnesium chloride, 6-10 mM potassium citrate, 4 mM reduced form of glutathione, 1.5 mg/ml bovine serum albumin) for one hour. Then, 0.2 μL of each this invention compound solution (in DMSO) were dispensed to 384-well microplate, 5 μL of the preincubated enzyme solution and 5 μL of substrate solution (50 mM HEPES-KOH (pH 7.4), 1 mM ATP, 0.8 mM acetyl CoA and 25-50 mM potassium bicarbonate) were added to microplate. After centrifugation and shaking, the reaction mixtures were incubated in a humidified box at room temperature for 1 to 3 hours. After the incubation, the enzyme reactions were stopped by the addition of EDTA. Then, after the samples were cocrystallized with CHCA (α-cyano-4-hydroxy cinnamic acid) matrices on MALDI target plate, by using the matrix assist laser […] time-of-flight mass spectrometer (MALDI-TOF MS), samples were measured in reflector negative mode. Deprotonated ions of acetyl CoA (AcCoA) of substrate and malonyl CoA (MalCoA) of the reaction product were detected, then, the conversion rates of acetyl CoA to malonyl CoA was calculated by the intensity of [MalCoA-H]−/(Intensity of [MalCoA-H]−+Intensity of [AcCoA-H]−) using each signal strength. […] In addition, potassium citrate concentrations in assay buffer solution, potassium hydrogen carbonate concentrations in substrate solution and incubation time were adjusted by each lot of enzyme.

recombinant human ACC2, sequence (O00763 27-2458): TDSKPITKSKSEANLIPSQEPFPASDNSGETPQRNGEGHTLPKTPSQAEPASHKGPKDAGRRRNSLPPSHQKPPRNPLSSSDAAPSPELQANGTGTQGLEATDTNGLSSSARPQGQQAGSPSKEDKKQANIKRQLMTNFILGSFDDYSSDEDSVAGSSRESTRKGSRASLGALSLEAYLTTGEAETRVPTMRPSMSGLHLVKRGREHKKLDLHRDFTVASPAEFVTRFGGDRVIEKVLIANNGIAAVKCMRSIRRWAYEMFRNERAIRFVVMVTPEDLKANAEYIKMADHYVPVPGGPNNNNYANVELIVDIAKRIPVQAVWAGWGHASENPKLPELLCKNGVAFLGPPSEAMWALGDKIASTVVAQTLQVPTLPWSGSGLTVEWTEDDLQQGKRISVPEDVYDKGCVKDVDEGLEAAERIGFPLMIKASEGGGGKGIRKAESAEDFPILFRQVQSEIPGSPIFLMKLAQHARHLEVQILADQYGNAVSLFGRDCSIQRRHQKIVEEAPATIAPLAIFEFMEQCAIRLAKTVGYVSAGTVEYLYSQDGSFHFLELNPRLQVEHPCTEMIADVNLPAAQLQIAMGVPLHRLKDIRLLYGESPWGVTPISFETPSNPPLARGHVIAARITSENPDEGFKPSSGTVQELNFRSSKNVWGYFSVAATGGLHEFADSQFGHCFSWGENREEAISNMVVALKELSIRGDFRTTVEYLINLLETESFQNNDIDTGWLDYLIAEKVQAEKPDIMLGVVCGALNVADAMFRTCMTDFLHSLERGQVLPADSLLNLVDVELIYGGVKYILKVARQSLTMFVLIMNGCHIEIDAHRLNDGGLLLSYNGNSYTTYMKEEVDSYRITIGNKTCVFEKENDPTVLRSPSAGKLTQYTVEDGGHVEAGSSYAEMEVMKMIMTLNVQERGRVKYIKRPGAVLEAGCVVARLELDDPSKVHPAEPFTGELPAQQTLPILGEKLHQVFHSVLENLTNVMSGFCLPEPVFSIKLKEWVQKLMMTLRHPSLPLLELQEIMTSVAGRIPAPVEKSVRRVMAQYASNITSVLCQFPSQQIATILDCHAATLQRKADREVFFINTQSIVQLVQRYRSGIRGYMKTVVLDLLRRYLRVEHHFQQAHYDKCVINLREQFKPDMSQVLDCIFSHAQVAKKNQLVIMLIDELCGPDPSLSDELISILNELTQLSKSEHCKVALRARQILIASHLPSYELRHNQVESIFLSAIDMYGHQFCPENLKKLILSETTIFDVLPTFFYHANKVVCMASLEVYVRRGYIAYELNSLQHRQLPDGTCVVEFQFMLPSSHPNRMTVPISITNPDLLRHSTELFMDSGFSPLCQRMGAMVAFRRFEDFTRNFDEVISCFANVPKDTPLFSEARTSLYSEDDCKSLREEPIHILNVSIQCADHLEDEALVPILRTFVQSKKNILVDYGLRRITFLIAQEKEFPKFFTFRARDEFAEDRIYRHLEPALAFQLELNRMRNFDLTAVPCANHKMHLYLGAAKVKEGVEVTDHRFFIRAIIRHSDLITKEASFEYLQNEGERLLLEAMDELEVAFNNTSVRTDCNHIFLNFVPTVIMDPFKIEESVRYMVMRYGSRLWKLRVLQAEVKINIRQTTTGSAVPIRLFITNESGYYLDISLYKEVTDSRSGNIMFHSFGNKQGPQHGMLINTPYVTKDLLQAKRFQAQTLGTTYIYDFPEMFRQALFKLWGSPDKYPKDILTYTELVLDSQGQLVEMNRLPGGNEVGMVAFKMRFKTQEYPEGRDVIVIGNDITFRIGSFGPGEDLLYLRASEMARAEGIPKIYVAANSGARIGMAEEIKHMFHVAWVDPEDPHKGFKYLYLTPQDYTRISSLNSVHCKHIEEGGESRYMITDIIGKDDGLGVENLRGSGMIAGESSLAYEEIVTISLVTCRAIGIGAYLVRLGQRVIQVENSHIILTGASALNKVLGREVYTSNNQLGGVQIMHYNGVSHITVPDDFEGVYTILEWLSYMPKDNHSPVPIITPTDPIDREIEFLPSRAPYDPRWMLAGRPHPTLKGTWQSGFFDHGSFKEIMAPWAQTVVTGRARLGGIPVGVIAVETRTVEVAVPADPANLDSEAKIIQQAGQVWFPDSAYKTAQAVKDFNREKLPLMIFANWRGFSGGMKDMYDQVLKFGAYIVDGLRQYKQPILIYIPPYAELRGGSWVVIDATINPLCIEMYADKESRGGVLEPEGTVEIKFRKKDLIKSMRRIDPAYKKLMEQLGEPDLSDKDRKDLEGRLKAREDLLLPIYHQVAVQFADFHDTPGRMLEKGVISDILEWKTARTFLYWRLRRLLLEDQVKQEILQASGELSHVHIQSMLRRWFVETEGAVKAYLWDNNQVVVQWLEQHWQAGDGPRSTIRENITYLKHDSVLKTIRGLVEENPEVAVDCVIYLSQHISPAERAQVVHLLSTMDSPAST

| SMILES | IC50 |
| --- | --- |
| CCOc1nc2ccc(OC[C@H]3C[C@H](OC[C@H](C)NC(C)=O)C3)cc2s1 [Compound I-101] | 26 nM |
| CC(=O)N[C@@H](C)COc1cnc(Oc2ccc3nc(C(C)C)sc3c2F)cn1 [Compound I-026] | 20 nM |
| CC(=O)N[C@@H](C)COc1cnc(Oc2ccc3nc(C(C)C)sc3c2Cl)cn1 [Compound I-038] | 72 nM |
| CC(=O)N[C@@H](C)CO[C@H]1CC[C@H](Oc2ccc3c(c2Cl)OCCN(CC(F)(F)F)C3=O)CC1 [Compound I-094] | 187 nM |
| CCOc1nc2ccc(O[C@H]3CC[C@H](OC[C@H](C)NC(C)=O)CC3)c(Cl)c2s1 [Compound I-054] | 15 nM |
| CCOc1nc2ccc(Oc3cnc(OC[C@H](C)NC(C)=O)cn3)c(Cl)c2s1 [Compound I-039] | 16 nM |
| CC(=O)N[C@@H](C)CO[C@H]1CC[C@H](Oc2ncc(-c3ccccc3)cc2C#N)CC1 [Compound I-105] | 182 nM |
| CC(=O)N[C@@H](C)COc1cnc(Oc2ccc3c(c2Cl)OCCN(CC(F)(F)F)C3=O)cn1 [Compound I-080] | 1290 nM |
| CC(=O)N[C@@H](C)CO[C@H]1CC[C@H](Oc2ccc3nc(C(C)C)oc3c2F)CC1 [Compound I-062] | 24 nM |

same assay, conditions: Tables 155-159

| SMILES | IC50 |
| --- | --- |
| CC(=O)N[C@@H](C)CO[C@H]1C[C@H](COc2cc3sc(C(C)C)nc3cc2F)C1 [Compound I-133] | 77 nM |
| CC(=O)N[C@@H](C)CO[C@H]1C[C@H](COc2ccc3nc(N4CCC4)sc3n2)C1 [Compound I-255] | 24 nM |
| CC(=O)N[C@@H](C)CO[C@H]1C[C@H](COc2nccc3c2OCC2CCCN32)C1 (stereo partly shown) [Compound I-331] | 470 nM |
| CC(=O)N[C@@H](C)CO[C@H]1CC[C@H](Oc2nc3ccc(OCC4CC4)cc3s2)CC1 [Compound I-550] | 21 nM |
| CCOc1ccc2nc(O[C@H]3CC[C@H](OC[C@H](C)NC(C)=O)CC3)n(C)c2c1C [Compound I-606] | 74 nM |
| CCOc1ccc(COc2ncnc(OC[C@H]3C[C@H](OC[C@H](C)NC(C)=O)C3)c2Cl)cc1 [Compound I-407] | 533 nM |
| CC(=O)N[C@@H](C)CO[C@H]1C[C@H](COc2nccc(NCc3ccccc3)c2Cl)C1 [Compound I-401] | 23 nM |
| C[C@@H](CO[C@H]1CC[C@H](Oc2nc3c(F)cc(OCC(F)F)c(F)c3n2C)CC1)NC(=O)N(C)C [Compound I-631] | 10 nM |
| CC(=O)N[C@@H](C)CO[C@H]1C[C@H](COc2ncnc(-c3ccc(C(F)(F)F)cc3)c2C)C1 [Compound I-418] | 733 nM |
| CC(=O)N[C@@H](C)CO[C@H]1CC[C@H](Oc2ccc3nc(OCCC(F)(F)F)n(C)c3n2)CC1 [Compound I-504] | 18 nM |
| CC(=O)N[C@@H](C)CO[C@H]1CC[C@H](Oc2nc3c(F)cc(OCc4ccccc4)c(F)c3n2C)CC1 [Compound I-652] | 7 nM |
| CC(=O)N[C@@H](C)CO[C@H]1C[C@](F)(COc2ccc3nc(OC(C)CF)sc3n2)C1 (stereo partly shown) [Compound I-202] | 66 nM |
| CC(=O)N[C@@H](C)CO[C@H]1C[C@H](COc2ccc3nc(O[C@H]4C[C@H](O)C4)sc3n2)C1 [Compound I-293] | 171 nM |
| CCOc1cc(Cl)c2nc(O[C@H]3CC[C@H](OC[C@H](C)NC(C)=O)CC3)n(C)c2c1Cl [Compound I-739] | 7 nM |
| CC(=O)N[C@@H](C)CO[C@H]1C[C@H](COc2nccc(N3CCC(F)(F)CC3)c2Cl)C1 [Compound I-375] | 102 nM |
| CC(=O)N[C@@H](C)CO[C@H]1CC[C@H](Oc2nc3c(C)nc(OC4CC4)c(Cl)c3n2C)CC1 [Compound I-726] | 9 nM |
| CC(=O)N[C@@H](C)CO[C@H]1C[C@H](COc2ncnc(OCc3cccc(C#N)c3)c2Cl)C1 [Compound I-346] | 19 nM |
| CC(=O)N[C@@H](C)CO[C@H]1CC[C@H](Oc2cc3sc(OC4CC4)nc3cn2)CC1 [Compound I-224] | 34 nM |
| CC(=O)N[C@@H](C)CO[C@H]1C[C@H](COc2nccc3c2cnn3CC2CCC2)C1 [Compound I-428] | 53 nM |
| CC(=O)N[C@@H](C)CO[C@H]1C[C@H](COc2nccc(OCC3CC3)c2Cl)C1 [Compound I-314] | 25 nM |
| CC(=O)N[C@@H](C)CO[C@H]1C[C@H](COc2ccc3nc(OC(C)C)sc3c2F)C1 [Compound I-153] | 43 nM |
| CC(=O)N[C@@H](C)CO[C@H]1C[C@H](COc2nccc(NC(=O)c3ccccc3)c2Cl)C1 [Compound I-339] | 35 nM |
| CC(=O)N[C@@H](C)CO[C@H]1CC[C@H](Oc2nc3c(Cl)cc(OCC(F)F)c(F)c3n2C)CC1 [Compound I-742] | 13 nM |
| C[C@@H](CO[C@H]1CC[C@H](Oc2ccc3nc(C(C)(F)F)sc3c2F)CC1)NC(=O)C1COC1 [Compound I-166] | 30 nM |
| CC(=O)N[C@@H](C)CO[C@H]1C[C@H](COc2ccc3nc(N4CC(F)(F)C4)sc3c2F)C1 [Compound I-286] | 125 nM |
| CC(=O)N[C@@H](C)CO[C@H]1C[C@H](COc2ccc3nc(OCC4CC4)n(C)c3c2)C1 [Compound I-489] | 843 nM |

| SMILES | IC50 |
| --- | --- |
| CC(=O)N[C@@H](C)CO[C@H]1C[C@H](COc2nccc(N3CCCC3C)c2Cl)C1 (stereo partly shown) [Compound I-414] | 59 nM |
| CC(=O)N[C@@H](C)CO[C@H]1CC[C@H](Oc2ccc3nc(C4(F)COC4)sc3c2F)CC1 [Compound I-134] | 23 nM |
| CC(=O)N[C@@H](C)CO[C@H]1C[C@H](COc2ccc3nc(OC[C@@H](C)F)sc3c2)C1 [Compound I-140] | 144 nM |
| CC(=O)N[C@@H](C)CO[C@H]1C[C@H](COc2ncnc(OCc3cccnc3)c2Cl)C1 [Compound I-392] | 69 nM |
| CC(=O)N[C@@H](C)CO[C@H]1CC[C@H](Oc2ncc(-c3ncc(C4CC4)cn3)cc2F)CC1 [Compound I-536] | 28 nM |
| CC(=O)N[C@@H](C)CO[C@H]1CC[C@H](Oc2ccc3nc(OC4CC4)sc3c2F)CC1 [Compound I-118] | 10 nM |
| CC(=O)N[C@@H](C)CO[C@H]1C[C@H](COc2ccc3nc(C(C)C)sc3n2)C1 [Compound I-135] | 16 nM |
| CC(=O)N[C@@H](C)CO[C@H]1CC[C@H](Oc2cc3sc(OCC(C)(C)C#N)nc3cn2)CC1 [Compound I-263] | 862 nM |
| CC(=O)N[C@@H](C)CO[C@H]1C[C@H](COc2ccc3nc(OCC4(C#N)CC4)sc3n2)C1 [Compound I-192] | 61 nM |
| CC(=O)N[C@@H](C)CO[C@H]1CC[C@H](Oc2ccc3nc(OCC4CC4)sc3c2F)CC1 [Compound I-119] | 4 nM |
| CCOc1nc2c(C)cc(O[C@H]3CC[C@H](OC[C@H](C)NC(C)=O)CC3)nc2s1 [Compound I-279] | 8 nM |
| CC(=O)N[C@@H](C)CO[C@]1(C)C[C@@H](COc2nccc(-c3ccc(F)cc3)c2Cl)C1 [Compound I-400] | 17 nM |
| CC(=O)N[C@@H](C)CO[C@H]1CC[C@H](Oc2nc3c(F)cc(OC4CC4)c(F)c3n2C)CC1 [Compound I-611] | 3 nM |
| CCOc1nc2ccc(O[C@H]3CC[C@H](OC[C@H](C)NC(C)=O)CC3)nc2n1CC [Compound I-493] | 70 nM |
| CC(=O)N[C@@H](C)CO[C@H]1C[C@H](COc2ccc3nc(Oc4ccc(F)cn4)sc3n2)C1 [Compound I-304] | 242 nM |
| CC(=O)N[C@@H](C)CO[C@H]1C[C@@](F)(COc2ccc3nc(OCC(F)F)sc3n2)C1 [Compound I-226] | 103 nM |
| CC(=O)N[C@@H](C)CO[C@H]1C[C@H](COc2ncnc3c2ccn3Cc2ccc(F)cc2)C1 [Compound I-474] | 16 nM |
| CC(=O)N[C@@H](C)CO[C@H]1CC[C@H](Oc2ccc3nc(N4CC(C)(C)C4)sc3c2F)CC1 [Compound I-167] | 59 nM |
| CC(=O)N[C@@H](C)CO[C@H]1CC[C@H](Oc2nc3c(F)cc(F)c(F)c3n2C)CC1 [Compound I-630] | 25 nM |
| CC(=O)N[C@@H](C)CO[C@H]1C[C@H](COc2ccc3nc(OC4CCC4)sc3n2)C1 [Compound I-245] | 4 nM |
| CC(=O)N[C@@H](C)CO[C@H]1CC[C@H](Oc2cc3sc(OCC(F)(F)F)nc3cn2)CC1 [Compound I-184] | 54 nM |
| CC(=O)N[C@@H](C)CO[C@H]1CC[C@H](Oc2nc3c(C#N)cc(OC4CC4)c(F)c3n2C)CC1 [Compound I-617] | 9 nM |
| CC(=O)N[C@@H](C)CO[C@H]1C[C@H](COc2ncnc(OCc3ncccc3F)c2Cl)C1 [Compound I-405] | 62 nM |
| CC(=O)N[C@@H](C)CO[C@H]1C[C@H](COc2ccc3nc(OC4CC(C#N)C4)sc3n2)C1 (stereo partly shown) [Compound I-301] | 37 nM |
| CC(=O)N[C@@H](C)CO[C@H]1CC[C@H](Oc2nc3c(Cl)nc(C4CC4)c(Cl)c3n2C)CC1 [Compound I-727] | 194 nM |
| CCOc1nc2cc(Cl)c(OC[C@H]3C[C@H](OC[C@H](C)NC(C)=O)C3)nc2s1 [Compound I-212] | 17 nM |
